In patent US20110160280A1, “CANCER-RELATED GENES, CDCA5, EPHA7, STK31 AND WDHD1” (Oncotherapy Science, Inc., priority 2007, published 2011):

What was measured:
[1] = system: EPHA7; experiment: RNA interference assay: EPHA7 expression by semiquantitative RT-PCR; assay type: cell-based, human; details: NCI-H520 and SBC-5 cells; versus control siRNAs (LUC, SCR)
Method: (§1) Total RNA was extracted from cultured cells using Trizol reagent (Life Technologies, Inc. Gaithersburg, Md.) according to the manufacturer's protocol. Extracted RNAs were treated with DNase I (Nippon Gene, Tokyo, Japan) and reversely-transcribed using oligo (dT) primer and SuperScript II. The primer sets for amplification were as follows:
(§2) Small interfering RNA (siRNA) duplexes (Dharmacon, Inc., Lafayette, Colo.) (600 pM) were transfected into lung-cancer cell lines LC319 and A549 for CDCA5; NCI-H520 and SBC-5 for EPHA7; LC319 for WDHD1, and esophageal cancer cell line TE9 for WDHD1 using 30 μl of Lipofectamine 2000 (Invitrogen, Carlsbad, Calif.) following the manufacturer's protocol. The transfected cells were cultured for 7 days, and the number of colonies was counted by Giemsa staining, and viability of cells was evaluated by 3-(4,5-dimethylthiazol-2-yl)-2,5-diphenyltetrazolium bromide (MTT) assay (cell counting kit-8 solution; Dojindo Laboratories, Kumanoto, Japan), at 7 days after transfection. To confirm suppression of gene expression, semiquantitative RT-PCR was carried out with synthesized primers described above.

[2] = system: NCI-H520 cells; experiment: RNA interference assay (oligo based): colony formation and MTT assays; assay type: cell-based, human; details: 7 days after transfection
Method: as §2

[3] = system: SBC-5 cells; experiment: as above; assay type: cell-based, human; details: 7 days after transfection
Method: as §2

[4] = system: WDHD1; experiment: RNA interference assay: WDHD1 knockdown by RT-PCR; assay type: cell-based, human; details: A549, LC319 and TE9 cells
Method: as §1, §2

[5] = system: CDCA5; experiment: RNA interference assay: CDCA5 expression by semiquantitative RT-PCR; assay type: cell-based, human; details: A549 and LC319 cells; compared with control siRNA (si-LUC and si-CNT)
Method: as §1, §2

[6] = system: STK31; experiment: RNA interference assay (vector based): STK31 knockdown by RT-PCR; assay type: cell-based, human; details: LC319 cells; controls si-EGFP and si-LUC
Method: as §1
(§3) The present inventors had established previously a vector-based RNAi system, psiH1BX3.0, which was designed to synthesize small interfering RNAs (siRNA) in mammalian cells (Suzuki C, et al., Cancer Res. 2003 Nov. 1; 63(21): 7038-41). Ten micrograms of siRNA expression vector were transfected using 30 μL Lipofectamine 2000 (Invitrogen) into lung cancer cell lines, LC319 and NCI-H2170. The transfected cells were cultured for 7 days in the presence of appropriate concentrations of geneticin (G418), and the number of colonies was counted by Giemsa staining, and viability of cells was evaluated by 3-(4,5-dimethylthiazol-2-yl)-2,5-diphenyltetrazolium bromide (MTT) assay (cell counting kit-8 solution; Dojindo, Kumamoto, Japan), at 7 days after the G418 treatment. To confirm suppression of STK31 protein expression, Western blotting was carried out with affinity-purified polyclonal antibody to STK31 according to the standard protocol. The target sequences of the synthetic oligonucleotides for RNAi were as follows: […]

[7] = system: LC319 cells; experiment: RNA interference assay (vector based): colony formation and MTT assays; assay type: cell-based, human; details: P<0.001; 7 days with G418
Method: as §3

[8] = molecular target: T1, EPHA7 (Homo sapiens, UniProt Q15375); experiment: In vitro EPHA7 kinase assay: EPHA7 autophosphorylation; assay type: biochemical; details: at the minimum concentration inhibiting EGFR or MET autophosphorylation (assay used 1 mM AG1478, 12.5 μM SU11274)
T1 construct: in vitro kinase assay using active recombinant proteins of cytoplasmic EPHA7, MET, EGFR; purchased Carnabioscience, Kobe, Japan
T1 sequence (Q15375 577-998 limits assumed): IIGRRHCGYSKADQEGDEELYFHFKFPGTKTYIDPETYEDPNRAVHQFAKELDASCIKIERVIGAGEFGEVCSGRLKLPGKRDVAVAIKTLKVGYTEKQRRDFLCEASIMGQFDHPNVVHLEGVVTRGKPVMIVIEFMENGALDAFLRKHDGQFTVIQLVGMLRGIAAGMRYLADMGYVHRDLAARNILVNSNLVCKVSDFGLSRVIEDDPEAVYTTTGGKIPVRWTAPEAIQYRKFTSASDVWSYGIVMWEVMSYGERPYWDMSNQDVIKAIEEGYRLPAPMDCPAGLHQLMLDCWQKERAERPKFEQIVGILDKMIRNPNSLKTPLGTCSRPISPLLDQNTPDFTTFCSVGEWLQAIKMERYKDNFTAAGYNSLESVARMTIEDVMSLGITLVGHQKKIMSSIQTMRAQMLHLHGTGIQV
Method: Active recombinant EPHA7 (Carnabioscience, Kobe, Japan), EGFR (Millipore, Billerica, Mass.), MET (Millipore), EGFR inhibitor AG1478 (EMD), and MET inhibitor SU11274 were commercially purchased. We constructed plasmids expressing partial fragments of EGFR (#1: codons 692-891, #2: codons 889-1045, #3: codons 1046-1186) that contained GST-tagged epitopes at their N-terminals were prepared using pGEX vector (GE Healthcare Bio-sciences). The recombinant peptides were expressed in Escherichia coli, BL21 codon-plus strain (Stratagene, La Jolla, Calif.), and purified using TALON resin (BD Biosciences Clontech) according to the supplier's protocol. The purified proteins were extracted on an SDS-PAGE gel. […] ATP (GE Healthcare Bio-sciences). After incubation at 30 degrees C. for 30 minutes the reactions were terminated by addition of SDS sample buffer. After boiling, the protein samples were electrophoresed on 5% to 15% gradient gel (Bio-Rad), and then signals were visualized by Molecular imager FX (Bio-Rad). In EPHA7 kinase assay using MET as substrate, we adopted the same protocol as above mentioned EPHA7-EGFR kinase reaction, using 50 ng of MET and 12.5 μM of SU11274 (MET inhibitor; see above), instead of EGFR and AG1478. […] ATP, and detected phosphorylated proteins using anti-pan phospho-tyrosine antibody (Invitrogen).

[9] = system: CDCA5; experiment: CDC2-dependent phosphorylation of CDCA5 in mitosis, western blotting; assay type: cell-based
Method: To determine whether endogenous CDCA5 phosphorylation in mitosis was CDC2-dependent, we further treated the lung cancer cells at 5 hours after release from G1/S phase with nocodazole alone or both nocodazole and CDC2 inhibitor CGP74514A, and measured the status of CDCA5 phosphorylation by western blotting. Mitotic cells treated with nocodazole alone gradually expressed phosphorylated CDCA5 (shifted bands) (FIG. 19B).

[10] = system: CDCA5
Method: (§4) Cultured A549 and LC319 lung cancer cells as well as cervical squamous cell carcinoma Hela cells were synchronized in G1/S phase by 2 μg/ml aphidilcoline for 16 hours incubation. For mitosis synchronization, the cells were released at 0 hour from G1/S phase. Nocodazole was added at 5 hours to prevent mitotic exit. At the point, CDC2 inhibitors or PBS were added to the cell cultures. For the EGF stimulation assay, Hela cells were cultured in FBS free medium for 20 hours. Then, the cells were stimulated by […] EGF for 30 min with or without 10 μM MEK inhibitor U0126 (Promega)

[11] = system: ERK; details: serum-starved Hela cells, EGF stimulation with 10 μM U0126
Method: as §4

[12] = system: NSCLC; details: cited from earlier work

## 5′-AAAAGAGAUGUUGCAGUA-3′ [si-EPHA7-#1]
[1]
  EPHA7 mRNA levels / EPHA7 expression: weak reduction of EPHA7 expression
[2]
  number of colonies and viable cells (MTT), NCI-H520 cells, siRNA against EPHA7: slight decreases in colony numbers and cell viability
[3]
  number of colonies and viable cells (MTT), SBC-5 cells, siRNA against EPHA7: slight decreases in colony numbers and cell viability

## 5′-GAUCAGACAUGUGCUAUUA UU-3′ (GAUCAGACAUGUGCUAUUAUU; listed as RNA, chemistry not given here) [si-WDHD1-#1]
[4]
  WDHD1 knockdown effect (RT-PCR): knockdown effect was confirmed

## 5′-GCAGUUUGAUCUCCUGGUUU-3′ [si-CDCA5-#1]
[5]
  expression of CDCA5: significantly suppressed expression of CDCA5

## 5′-GCCAGAGACUUGGAAAUGU UU-3′ [si-CDCA5-#2]
[5]
  expression of CDCA5: significantly suppressed expression of CDCA5

## 5′-GGAGATAGCTCTGGTTGAT-3′ [si-STK31-#1]
[6]
  STK31 knockdown effect (RT-PCR): knockdown effect was confirmed
[7]
  number of LC319 cells (MTT and colony-formation assays), siRNA against STK31: drastic reduction in the number of cells

## 5′-GGGCTATTCTGTGGATGTT-3′ [si-STK31-#2]
[6]
  STK31 knockdown effect (RT-PCR): knockdown effect was confirmed
[7]
  number of LC319 cells (MTT and colony-formation assays), siRNA against STK31: drastic reduction in the number of cells

## 5′-UAGCAAAGCUGACCAAGAA-3′ [si-EPHA7-#2]
[1]
  EPHA7 mRNA levels / EPHA7 expression: significantly decreased
[2]
  number of colonies and viable cells (MTT), NCI-H520 cells, siRNA against EPHA7: significant decreases in the number of colonies formed and in the numbers of viable cells
[3]
  number of colonies and viable cells (MTT), SBC-5 cells, siRNA against EPHA7: significant decreases in the number of colonies formed and in the numbers of viable cells

## COc1cc2ncnc(Nc3cccc(Cl)c3)c2cc1OC [AG1478]
[8]
  EPHA7 autophosphorylation: did not inhibit EPHA7 autophosphorylation

## CCn1cnc2c(Nc3cccc(Cl)c3)nc(N[C@@H]3CCCC[C@@H]3N)nc21 [CGP74514A]
[9]; added with nocodazole 5 hours after release from G1/S phase
  CDCA5 phosphorylation in mitosis (upper shifted bands): showed no upper shifted bands indicating that CDCA5 phosphorylation in mitosis was significantly inhibited
[9]; cells treated with CDC2 inhibitor (FIG. 19C)
  stability of CDCA5 protein: seems to be unstable

## Cc1[nH]c(/C=C2\C(=O)Nc3ccc(S(=O)(=O)N(C)c4cccc(Cl)c4)cc32)c(C)c1C(=O)N1CCN(C)CC1 [SU11274]
[8]
  EPHA7 autophosphorylation: did not inhibit EPHA7 autophosphorylation

## N#CC(=C(/N)Sc1ccccc1N)/C(C#N)=C(\N)Sc1ccccc1N [U0126]
[10]; Hela cells, EGF, U0126 treatment
  signal of spot no. 2 of myc-tagged CDCA5, 2D-western-blotting: reduced
[10]; Hela cells, EGF, pre-incubation with U0126
  shifted spots with more acidic pI (spots no. 3 and 4) of myc-tagged CDCA5, 2D-western-blotting: significantly reduced
[10]; serum-starved Hela cells, EGF stimulation with 10 μM U0126
  upper shift of CDCA5 band (endogenous CDCA5 phosphorylation): completely inhibited the upper shift of CDCA5 band
[11]
  levels of ERK phosphorylation: reduced the levels of ERK phosphorylation

## O=C1Cc2c([nH]c3ccc([N+](=O)[O-])cc23)-c2ccccc2N1 [alsterpaullone]
[9]
  CDC2-inhibitory activity relative to CGP74514A: lower compared with the other CDC2 inhibitor CGP74514A
[9]; 4 μM, with nocodazole 5 hours after release from G1/S phase
  CDCA5 phosphorylation in mitosis: could strictly inhibit CDCA5 phosphorylation

## C#Cc1cccc(Nc2ncnc3cc(OCCOC)c(OCCOC)cc23)c1 [erlotinib]
[12]; NSCLC patients, placebo 4.7 months (Shepherd et al. 2005)
  median survival: 6.7 months

## COc1cc2ncnc(Nc3ccc(F)c(Cl)c3)c2cc1OCCCN1CCOCC1 [gefitinib]
[12]; NSCLC (Giaccone 2004; Baselga 2004)
  clinical outcome: superior response rate and symptom control
